Consider two molecules from paper PMC2901826, “Intramolecular Modulation of Serine Protease Inhibitor Activity in a Marine Cyanobacterium with Antifeedant Properties” (Marine Drugs, 2010).

Experiment [1] deals with T1, α-chymotrypsin from bovine pancreas (Bos taurus, UniProt P00766).
T1 construct: purchased Sigma C4129; host or cells: bovine pancreas
Briefly: Chymotrypsin inhibition assay. As to conditions: for IC50: α-chymotrypsin from bovine pancreas, substrate N-succinyl-Gly-Gly-Phe-p-nitroanilide, 30 min pre-incubation, triplicate, read-out: Serine protease inhibitory activity (IC50), Chymotrypsin. It counts as biochemical. On the procedure:
(§1) Elastase assay was assessed using high-purity porcine pancreatic elastase (Elastin Products Company, EC134, 135 units/mg). The assay buffer used was 1M Tris-HCl (pH 8.0). Assay buffer (79 μL), elastase solution (75 μg/mL in assay buffer, 5 μL) and various concentrations of 1 and 2 (1 μL, dissolved in DMSO) were pre-incubated for 15 min at room temperature in a microtiter plate. After this time, 15 μL of substrate solution (2 mM N-succinyl-Ala-Ala-Ala-p-nitroanilide in assay buffer) was added to each well and the reaction was followed by measuring the absorbance at 405 nm every 30 s. Inhibition of chymotrypsin was determined using the α-chymotrypsin from bovine pancreas (Sigma, C4129, 55 units/mg). The assay buffer was 50 mM Tris-HCl, 100 mM NaCl and 1 mM CaCl2 (pH 7.8). Assay buffer (39 μL), enzyme solution (100 μg/mL in assay buffer, 10 μL), and various concentrations of 1 and 2 (1 μL, dissolved in DMSO) were pre incubated for 30 min at room temperature before substrate solution (1.5 mM N-succinyl-Gly-Gly-Phe-p-nitroanilide in assay buffer) was added. The reaction was followed by measuring the absorbance at 405 nm every 30 s for 30 min. For each assay, enzyme activity of each well was calculated using the initial slope of each progress curve, expressed as a percentage of the slope of uninhibited reaction. All assays were carried out in triplicate at ambient temperature (T = 29 °C). […] Dose–response curve fitting was done using Xlfit Excel, MathlQ Version 2.2.2 (IDBS Ltd.).

The target in experiment [2] is T1, α-chymotrypsin from bovine pancreas. To be noted: cited from earlier work.
The target in experiment [3] is T2, porcine pancreatic elastase (Sus scrofa, UniProt P00772).
T2 construct: purchased Elastin Products Company EC134; host or cells: porcine pancreas
Briefly: Elastase inhibition assay. It is filed as biochemical. To be noted: for IC50: porcine pancreatic elastase, substrate N-succinyl-Ala-Ala-Ala-p-nitroanilide, 15 min pre-incubation, triplicate, read-out: Serine protease inhibitory activity (IC50), Elastase. On the procedure: as §1

Structures are written as SMILES.

T2 sequence (P00772 27-266): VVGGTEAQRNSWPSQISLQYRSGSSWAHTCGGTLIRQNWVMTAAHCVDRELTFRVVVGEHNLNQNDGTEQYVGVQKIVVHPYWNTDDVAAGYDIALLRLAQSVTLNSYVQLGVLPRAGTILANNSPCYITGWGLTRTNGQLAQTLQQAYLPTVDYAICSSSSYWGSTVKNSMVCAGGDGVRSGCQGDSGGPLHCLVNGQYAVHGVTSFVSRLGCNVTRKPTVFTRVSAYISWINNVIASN

Take `CC(C)C[C@@H]1NC(=O)[C@@H](NC(=O)[C@@H](NC(=O)[C@H](C)NC(=O)[C@H](CCCc2ccc(O)cc2)NC(=O)[C@H](O)CO)C(C)C)[C@@H](C)OC(=O)[C@H](C(C)C)NC(=O)[C@H](Cc2ccc(O)c(Br)c2)N(C)C(=O)[C@H]([C@@H](C)O)N2C(=O)[C@H](CC[C@H]2O)NC1=O` [Largamide D (2), largamide D]: the values for the IC50 in experiment [1] and in experiment [3] were 83 ± 8 nM and 45 ± 3 nM, respectively. The “chymotrypsin inhibition, previously reported” value in experiment [2] is recorded as “moderate chymotrypsin inhibitor”.
`CC(C)CC1NC(=O)C(NC(=O)C(NC(=O)C(C)NC(=O)C(CCCc2ccc(O)cc2)NC(=O)C(O)CO)C(C)C)C(C)OC(=O)C(C(C)C)NC(=O)C(Cc2ccc(O)c(Br)c2)N(C)C(=O)C2C(C)OC3CCC(NC1=O)C(=O)N32` (stereo not shown) [Largamide D oxazolidine (1), largamide D oxazolidine]: the “fold reduced activity against chymotrypsin” value in experiment [1] (relative to largamide D (2)) was 11 fold. In addition, the IC50 in experiment [1] was found to be 928 ± 93 nM; in experiment [3], 1520 ± 80 nM. Further, the “fold reduced activity against elastase” value in experiment [3] (relative to largamide D (2)) was determined as 33 fold.
